Measured values published in US9725449B2, “Tricyclic compounds as anticancer agents” (BRISTOL-MYERS SQUIBB COMPANY, priority 2015, dated 2017).
pIC50: −log10 of the molar value.

Biological target: BRD4 (Homo sapiens, UniProt O60885)
Experiment: Time resolved fluorescence resonance energy transfer (TR-FRET) binding assay, bromodomain BRD4
Conditions: one of the FRET assays described; read-out: FRET BRD4 IC50

Structure (SMILES)	pIC50
Cc1nnn(C)c1-c1cnc2c3ccc(-c4c(C)nnn4C)nc3n([C@@H](c3ccccc3)C3CCOCC3)c2c1 [Example 164, 5,11-Bis(dimethyl-1H-1,2,3-triazol-5-yl)-8-[(R)-oxan-4-yl(phenyl)methyl]-3,8,10-triazatricyclo[7.4.0.0^2,^7]trideca-1(9),2(7),3,5,10,12-hexaene]	> 8.00
[2H]C([2H])([2H])c1nnn(C)c1-c1cnc2c3ccc(-c4c(C([2H])([2H])[2H])nnn4C)nc3n([C@@H](c3ccccc3)C3CCOCC3)c2c1 [Example 165, 5,11-Bis[4-(^2H3)methyl-1-methyl-1H-1,2,3-triazol-5-yl]-8-[(R)-oxan-4-yl(phenyl)methyl]-3,8,10-triazatricyclo[7.4.0.0^2,^7]trideca-1(9),2(7),3,5,10,12-hexaene]	> 8.00
COc1nnn(C)c1-c1cnc2c3ccc(-c4c(OC)nnn4C)nc3n([C@H](c3ccccc3)C3CCOCC3)c2c1 [Example 166, 5,11-Bis(4-methoxy-1-methyl-1H-1,2,3-triazol-5-yl)-8-[(S)-oxan-4-yl(phenyl)methyl]-3,8,10-triazatricyclo[7.4.0.0^2,^7]trideca-1(9),2(7),3,5,10,12-hexaene]	> 8.00
COc1nnn(C)c1-c1cnc2c3ccc(Cl)nc3n([C@H](c3ccccc3)C3CCOCC3)c2c1 [Example 167, 11-Chloro-5-(4-methoxy-1-methyl-1H-1,2,3-triazol-5-yl)-8-[(S)-oxan-4-yl(phenyl)methyl]-3,8,10-triazatricyclo[7.4.0.0^2,^7]trideca-1(9),2(7),3,5,10,12-hexaene]	> 5.82
[2H]C([2H])([2H])c1nnn(C)c1-c1cnc2c3cnc(-c4c(C([2H])([2H])[2H])nnn4C)cc3n([C@H](c3ccccc3)C3CCOCC3)c2c1 [Example 168, 5,11-Bis[4-(^2H3)methyl-1-methyl-1H-1,2,3-triazol-5-yl]-8-[(S)-oxan-4-yl(phenyl)methyl]-3,8,12-triazatricyclo[7.4.0.0^2,^7]trideca-1(9),2(7),3,5,10,12-hexaene]	> 9.00
Cc1nnn(C)c1-c1cnc2c3ccc(C#N)nc3n([C@H](c3ccccc3)C3CCOCC3)c2c1 [Example 169, 5-(Dimethyl-1H-1,2,3-triazol-5-yl)-8-[(S)-oxan-4-yl(phenyl)methyl]-3,8,10-triazatricyclo[7.4.0.0^2,^7]trideca-1(9),2(7),3,5,10,12-hexaene-11-carbonitrile]	> 8.00
C=C(OCC)c1ccc2c3ncc(-c4c(C)nnn4C)cc3n([C@H](c3ccccc3)C3CCOCC3)c2n1 [Example 170, 5-(Dimethyl-1H-1,2,3-triazol-5-yl)-1-(1-ethoxyethenyl)-8-[(S)-oxan-4-yl(phenyl)methyl]-3,8,10-triazatricyclo[7.4.0.0^2,^7]trideca-1(9),2(7),3,5,10,12-hexaene]	> 8.00
CC(=O)c1ccc2c3ncc(-c4c(C)nnn4C)cc3n([C@H](c3ccccc3)C3CCOCC3)c2n1 [Example 171, 1-[5-(Dimethyl-1H-1,2,3-triazol-5-yl)-8-[(S)-oxan-4-yl(phenyl)methyl]-3,8,10-triazatricyclo[7.4.0.0^2,^7]trideca-1(9),2(7),3,5,10,12-hexaen-11-yl]ethan-1-one]	> 8.00
[2H]C(C)(O)c1ccc2c3ncc(-c4c(C)nnn4C)cc3n([C@H](c3ccccc3)C3CCOCC3)c2n1 (stereo partly drawn) [Example 172, 1-[5-(Dimethyl-1H-1,2,3-triazol-5-yl)-8-[(S)-oxan-4-yl(phenyl)methyl]-3,8,10-triazatricyclo[7.4.0.0^2,^7]trideca-1(9),2(7),3,5,10,12-hexaen-11-yl](1-^2H)ethan-1-ol]	> 8.00
Cc1nnn(C)c1-c1cnc2c3ccc(C(C)O)nc3n([C@H](c3ccccc3)C3CCOCC3)c2c1 (stereo partly drawn) [Example 173, 1-[5-(Dimethyl-1H-1,2,3-triazol-5-yl)-8-[(S)-oxan-4-yl(phenyl)methyl]-3,8,10-triazatricyclo[7.4.0.0^2,^7]trideca-1(9),2(7),3,5,10,12-hexaen-11-yl]ethan-1-ol]	> 8.00
